This passage reports EC50 results from PubChem BioAssay AID467 (The Scripps Research Institute Molecular Screening Center, 2006).

What is called EC50 is the midpoint of the concentration-response curve.

This assay relates to parental cell line counter screen, S1P1 agonist assay readout. Put plainly: signal in parental cells, counter-screen for S1P1 agonist project (AID 467;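 note: agonist potency measured against forskolin stimulation plus an EC20 level of SEW2871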). (In general: The purpose of a counterscreen is to sort out artefacts and off-target activity.)

Active and inactive are the calls of the source. The rule behind the calls is not given here.

With `Cc1csc(NC(=O)c2nc(-c3ccccc3)n(-c3ccccc3)n2)n1`, the EC50 is > 95.1 µM (inactive). `CC(C)c1cc(C(=O)N2CCN(C(c3ccccc3)c3ccccc3)CC2)no1`: the EC50 was > 95.1 µM (inactive). Then `COc1cccc(N2CCN(c3ncnc4c3[nH]c3ccccc34)CC2C)c1` (centres undefined), with 4.8 µM; and `Cc1ccc(Cl)cc1N1CCN(C(=O)C2CCN(c3nnc(-n4cccc4)s3)CC2)CC1`, with > 95.1 µM (inactive); and `O=S(=O)(NCc1cn2ccsc2n1)c1ccc(Oc2ccccc2)cc1`, with 45.3 µM (inactive). With `O=C(CSc1ncnc2c1oc1ccccc12)N1CCCc2ccccc21` the figure was > 10 µM (inactive). With `CCN(CC)C(=O)Oc1ccc2c(=O)c(-c3ccc(OC)cc3)coc2c1` the figure was > 95.1 µM (inactive). For the compound `COc1ccc(S(=O)(=O)Cc2ccc(C(=O)N3CCN(c4ccc(Cl)cc4)CC3)o2)cc1`, the EC50 was > 30 µM (inactive). Then `CN(C)c1ccnc2sc3c(=O)n(Cc4ccccc4)cnc3c12`, with > 95.1 µM (inactive); and `Cc1nn(Cc2ccc(Cl)c(Cl)c2)c(C)c1NC(=O)c1cc(CC(C)C)on1`, with 23.8 µM (inactive); and `COc1ccccc1Oc1ccc2c(c1)C(=O)N(c1ccc(O)cc1)C2=O`, with > 95.1 µM (inactive).

Consider `COc1cc2c(cc1OC)C(C)N(C(=O)c1cc3ccccc3o1)CC2` (centres undefined), for which the EC50 was > 95.1 µM (inactive).

Turning to `O=C(c1cc(-c2ccco2)on1)N1CCN(C(c2ccccc2)c2ccccc2)CC1`, the EC50 is > 95.1 µM (inactive). Then `CCOc1ccc(-c2noc(-c3ccncc3)n2)cc1OCC`, with > 95.1 µM (inactive).

On to `CC(C)COC(=O)NCCOC(=O)Nc1cccc(Cl)c1`, for which the EC50 is 27.7 µM (inactive). With `Cc1noc(C)c1S(=O)(=O)N(CC(=O)Nc1ccc2c(c1)OCCO2)c1ccc(C(C)C)cc1` the figure was > 95.1 µM (inactive). Then `COc1ccccc1OCc1nc(C#N)c(N2CC(C)CC(C)C2)o1` (centres undefined), with > 95.1 µM (inactive); and `O=C(NCc1ccc2c(c1)OCO2)C1CC(=O)N(C2CCCCCCC2)C1` (centres undefined), with > 95.1 µM (inactive); and `COc1ccc(-c2cc(C(=O)NC3CCCC3)no2)cc1OC`, with > 95.1 µM (inactive). With `N#Cc1nc(COc2ccc(Cl)cc2Cl)oc1N1CCN(c2ccccc2)CC1` the figure was > 95.1 µM (inactive). Consider `O=C(Nc1nccs1)c1ccc(S(=O)(=O)NCC2CCCCC2)cc1`, for which the EC50 is > 30 µM (inactive). Then `CCc1oc2ccccc2c1C(=O)c1cc(Br)c(O)c(Br)c1`, with 13.5 µM (inactive).

For `COc1ccc2[nH]c(=O)c3c(c2c1)OC(C)(C)C=C3`, the EC50 was 6.75 µM. With `CCOc1ccc(-c2nnc(-c3ccco3)o2)cc1OCC` the figure was > 95.1 µM (inactive). With `CCOC(=O)c1oc2ccc(S(=O)(=O)n3nc(-c4ccc(OC)cc4)cc3N)cc2c1C` the figure was > 95.1 µM (inactive); with `O=C(CSc1nnc(-c2c[nH]c3ccccc23)o1)N(Cc1ccccc1)c1ccc(F)cc1`, 16 µM (inactive). Consider `O=S1(=O)C=C(Sc2nc3ccccc3s2)c2ccccc21`, for which the EC50 was 1.26 µM. Consider `O=c1c(-c2ccc3c(c2)OCCO3)c(C(F)(F)F)oc2cc(O)cc(O)c12`, for which the EC50 is 18.4 µM (inactive). As to `Cc1ccc(-n2ncc3c(N4CCCC(C)C4)ncnc32)c(C)c1` (centres undefined), the EC50 was 36.1 µM (inactive). With `Cc1ccc(C(C)C)c(OCc2nc(-c3nonc3N)no2)c1` the figure was > 30 µM (inactive); with `Oc1ccc(-c2nnc(-c3ccc(O)cc3)nn2)cc1`, > 95.1 µM (inactive); with `Cc1ccc(C)c(-n2nnnc2Sc2nnnn2-c2ccccc2)c1`, 6.91 µM. On to `Cc1ccc(-c2csc3ncnc(Sc4nnc(CN5CCCCCC5=O)o4)c23)cc1`, for which the EC50 is 2.73 µM. Consider `CCCCOc1ncnc2c1[nH]c1ccccc12`, for which the EC50 was 37.9 µM (inactive). Then `CCCS(=O)(=O)c1nnnn1-c1cccc(OC)c1`, with 0.988 µM; and `CC(C)(C)NC(=O)CSc1ncnc2c1nnn2Cc1ccccc1Cl`, with 7.01 µM. With `CCCC(=O)Nc1ccc(-c2nc3cc(C)c(C)cc3o2)cc1` the figure was > 95.1 µM (inactive). With `O=c1oc2cc(Br)ccc2n1CSC1=NCCS1` the figure was > 10 µM (inactive); with `COc1cccc(-c2cc(C(=O)Nc3ccccc3SC)no2)c1`, > 95.1 µM (inactive); with `CCCOc1ccc(-c2nnc(-c3ccncc3)o2)cc1`, > 95.1 µM (inactive). For `Cc1cc(/C=c2/sc3nc4ccccc4n3c2=O)c(C)n1-c1ccccn1`, the EC50 is > 95.1 µM (inactive). Consider `CCc1nnc(NC(=O)C2CCCCC2)s1`, for which the EC50 is > 95.1 µM (inactive). As to `O=C(NCc1ccccc1)N1CCN(c2ccc(Cl)c(Cl)c2)CC1`, the EC50 was > 95.1 µM (inactive). With `O=C(CSc1nnc(-c2cc3ccccc3cc2O)n1Cc1ccco1)c1ccc(F)cc1` the figure was > 10 µM (inactive); with `COc1ccccc1OCCCCCc1c(C)n[nH]c1C`, 57.2 µM (inactive).

For `CC(=O)Nc1ccccc1OCC(=O)c1cc(C)n(Cc2cccs2)c1C`, the EC50 is 10.5 µM (inactive). Take `COC(=O)c1cc(NCc2ccccc2F)ccc1N1CCOCC1`: the EC50 is > 95.1 µM (inactive). Then `Cc1ccc(-n2c(C)cc(C(=O)CSc3nnnn3C)c2C)cc1`, with > 95.1 µM (inactive); and `Brc1ccc2ncnc(Nc3ccc(N4CCOCC4)cc3)c2c1`, with 46.6 µM (inactive); and `Cc1cc(C(=O)CSc2nnc(-c3cccs3)o2)c(C)n1-c1ccccc1`, with 19.2 µM (inactive). Then `CCCCn1ccnc1C(=O)c1cccc(S(=O)(=O)N2c3ccccc3CC2C)c1` (centres undefined), with > 95.1 µM (inactive); and `CCCCn1nnnc1SCC(=O)c1ccc(C)c(C)c1`, with > 95.1 µM (inactive); and `COc1cccc(-c2nnc3sc(C4CCCCC4)nn23)c1`, with 44.2 µM (inactive). Then `COc1ccc(/C(O)=C2/C(=O)C(=O)N(CC3CCCO3)C2c2cccc(OC)c2)cc1` (centres undefined), with > 95.1 µM (inactive); and `CCc1ccc(-c2nc(CSCC(=O)N3CCN(c4ccccn4)CC3)c(C)o2)cc1`, with 18.7 µM (inactive); and `CC(C)(C)OC(=O)N[C@@H](Cc1ccccc1)c1nnc(S(=O)(=O)Cc2cccc(F)c2)o1`, with 2.63 µM. `Cc1csc(NC(=O)C(Cc2ccccc2)n2cccc2)n1` (centres undefined): the EC50 is > 30 µM (inactive). Then `Cc1cc(C(=O)CSc2nnc(-c3ccccc3)n2-c2ccccc2)c(C)n1-c1ncn[nH]1`, with > 95.1 µM (inactive); and `Cc1cc(C(=O)CC#N)c(C)n1-c1ccc(OC(F)F)cc1`, with > 95.1 µM (inactive).

Turning to `CCc1ccc(-c2nc(-c3ccncc3)no2)cc1`, the EC50 is > 95.1 µM (inactive). For `CC1CCN(S(=O)(=O)c2ccc3c(c2)oc(=O)n3CC(=O)NCc2ccc3c(c2)OCO3)CC1`, the EC50 is > 30 µM (inactive). As to `Cc1cc(N2CCOCC2)nc(NCc2ccccc2)n1`, the EC50 is 71.3 µM (inactive).

On to `CCC(=O)Nc1ccc2c(c1)C(=O)N(C1CCCCC1)C2=O`, for which the EC50 was > 95.1 µM (inactive). With `c1ccc2c(c1)oc1c(N3CCN(Cc4ccc5c(c4)OCO5)CC3)ncnc12` the figure was 21.3 µM (inactive); with `Cc1ccc(-c2nnc(SCc3ccccc3F)o2)cc1`, > 95.1 µM (inactive); with `Cc1noc(/C=C/N(C)C)c1S(=O)(=O)N1CCc2ccccc21`, > 95.1 µM (inactive). Then `CCN(CC)c1ccc2cc(NC(=O)CCC(=O)O)c(=O)oc2c1`, with 6.1 µM; and `O=C(CSc1nnc(-c2ccc(Cl)cc2)n1Cc1ccco1)c1cccs1`, with > 30 µM (inactive); and `CCN(CC)S(=O)(=O)c1cc(C(=O)Nc2ccncc2)ccc1Cl`, with > 95.1 µM (inactive).

For `O=C(c1ccccc1)C(CCC(CN1CCOCC1)C(=O)c1ccccc1)CN1CCOCC1` (centres undefined), the EC50 is 2.68 µM. Then `COc1ccc(CNc2cc(C)nc3ncnn23)c(OC)c1`, with > 95.1 µM (inactive).

As to `Cc1nn(Cc2ccccc2)c(C)c1C(=O)OCC(=O)c1cc(C)n(C2CC2)c1C`, the EC50 was > 30 µM (inactive).

For `Cc1ccccc1-c1nnc(SCc2ccccc2F)o1`, the EC50 is > 95.1 µM (inactive). Then `COc1ccc(-c2nc(-c3cccc(C(F)(F)F)c3)no2)cc1OC`, with > 95.1 µM (inactive); and `CCCOC(=O)c1[nH]c2c(c1C)C(=O)CC(c1cc(OC)c(OC)c(OC)c1)C2` (centres undefined), with 35.5 µM (inactive).

For `CC(=O)c1ccc(NC(=O)N2CCN(c3cccc(Cl)c3)CC2)cc1`, the EC50 is > 30 µM (inactive). Then `C=CCN1C(=Nc2cccnc2)SCC1(O)c1ccc(C)cc1` (centres undefined), with 31.9 µM (inactive); and `CCOc1nc(-c2ccccc2)ccc1-c1noc(-c2ccco2)n1`, with > 95.1 µM (inactive).

With `O=C(c1ccc(Cl)s1)N1CCN(c2nc3ccccc3s2)CC1`, the EC50 is > 95.1 µM (inactive).

Consider `CCc1ccc(S(=O)(=O)NCCc2csc(-c3ccccc3)n2)s1`, for which the EC50 was 33.4 µM (inactive). With `Cc1cc(C)cc(-c2nc(-c3ccncc3)no2)c1` the figure was > 95.1 µM (inactive); with `Oc1ccc(-c2nc(-c3ccc(O)c(O)c3)cs2)cc1`, 6.35 µM; with `O=C(Nc1ccc(-c2noc(CCc3ccccc3)n2)cc1)c1cccnc1`, > 30 µM (inactive).

For `O=C(CSc1nnc(-c2c[nH]c3ccccc23)o1)N1c2ccccc2CCc2ccccc21`, the EC50 was > 95.1 µM (inactive). With `COc1ccc(S(=O)(=O)Cc2ccc(C(=O)N3CCN(c4cccc(C)c4C)CC3)o2)cc1` the figure was > 30 µM (inactive); with `CN(CC1CCCO1)S(=O)(=O)c1ccc(C(=O)Nc2nc(-c3ccccn3)cs2)cc1` (centres undefined), > 30 µM (inactive).

`CCc1c(C)nc2ncnn2c1NCCc1ccc(OC)cc1`: the EC50 was 40.9 µM (inactive). With `O=C(Nc1ccc(OC(F)F)c(Cl)c1)Nc1ccc2c(c1)OCO2` the figure was > 10 µM (inactive); with `COc1ccc(NC(=O)c2cc(-c3cccs3)on2)cc1OC`, > 95.1 µM (inactive).
